# According to US5187188A, “Oxazole carboxylic acid derivatives” (Bristol-Myers Squibb Company, priority 1992, dated 1993):
# Structures can show the parent of a compound that is named as a salt.
# System: human platelets
# Assay: In vitro inhibition of ADP-induced human platelet aggregation in platelet-rich plasma (aggregometer method of Born)
# Format: cell-based
# Conditions: human PRP, 0.5 mcg/mL ADP, about three minutes preincubation
# Protocol: The aggregometer method of Born, G. V. R., J. Physiol., (London), 162, 67-68, (1962) as modified by Mustard, J. F., et al., J. Lab. Clin. Med., 64, 548-599, (1964) Was used to assess the in vitro activity of the various compounds as to the inhibition of adenosine diphosphate (ADP) and collagen-induced platelet aggregation. The human volunteer donor's arm is cleansed with 70% ethyl alcohol. A sterile 20 ml syringe and needle are used to withdraw 20 ml of blood. The blood is immediately added to a test tube containing 3.8% sodium citrate to prevent clotting (1 part citrate to 9 parts blood).
# Platelet rich plasma (PRP) was separated by centrifugation for 10 minutes at 1000 rpm (140×g) from citrated (3.8%) human blood. All glassware used for preparation of PRP is silicon treated. ADP in final concentration of 0.5 mcg/mL or 0.05 mL of a collagen suspension prepared according to the method described by Evans, G., et al., J. Exp. Med., 128, 877-894, (1968) was used to induce aggregation. The various compounds tested were dissolved in dimethylsulfoxide (DMSO) so that 5 mcl added to the platelet rich plasma would yield the desired test concentration. Vehicle control trials were done and compared with aggregation induced in platelet rich plasma containing various concentrations of the test compounds. Dose response curves were obtained and Inhibitor Concentration (IC50) values calculated.
# The compounds listed in Table 1 were evaluated as inhibitors of human platelet aggregation in vitro in platelet-rich-plasma (PRP) using […] ADP as the inducing agent. The PRP was incubated with drug for about three minutes prior to the addition of the agonist. The extent of aggregation in the presence of various concentrations of test compounds was compared with that in vehicle controls. Dose-response curves were obtained and IC50 values determined.
row,Structure (SMILES),IC50
1,"CNC(=O)C(Cc1cccc(OCC(=O)O)c1)c1nc(-c2ccccc2)c(-c2ccccc2)o1 (stereo not shown) [Compound 10f, [3-[2-(4,5-Diphenyl-2-oxazolyl)-3-(methylamino)-3-oxopropyl]phenoxy]acetic acid]",0.32 µg/mL
2,"COC(=O)COc1cccc(C=C(C(N)=O)c2nc(-c3ccccc3)c(-c3ccccc3)o2)c1 [Compound 7g, (E) and (Z) Methyl [3-[3-amino-2-(4,5-diphenyl)-2-oxazolyl]-3-oxo-1-propenyl]phenoxy]acetate]",2.5 µg/mL
3,COC(=O)COc1cccc(CC(C(=O)N(C)C)c2nc(-c3ccccc3)c(-c3ccccc3)o2)c1 (stereo not shown) [Compound 9j],16 µg/mL
4,"O=C(O)COc1cccc(CC(C(=O)O)c2nc(-c3ccccc3)c(-c3ccccc3)o2)c1 (stereo not drawn) [Compound 10b, α-[[3-(2-Hydroxy-2-oxoethoxy)phenyl]methyl]-4,5-diphenyl-2-oxazoleacetic acid, disodium salt]",7 µg/mL
5,"N#C/C(=C\c1cccc(OCC(=O)O)c1)c1nc(-c2ccccc2)c(-c2ccccc2)o1 [Compound 17, (E)-[3-[2-cyano-2-(4,5-diphenyl-2-oxazolyl)ethenyl]phenoxy]acetic acid]",0.11 µg/mL
6,CC(C)OC(=O)C(Cc1cccc(OCC(=O)O)c1)c1nc(-c2ccccc2)c(-c2ccccc2)o1 (stereo not shown) [Compound 10d],0.6 µg/mL
7,"CCOC(=O)C(Cc1cccc(OCC(=O)OC)c1)c1nc(-c2ccccc2)c(-c2ccccc2)o1 (stereo not drawn) [Compound 9b, Ethyl α-[(3-[(methoxycarbonyl)methoxyl]phenyl]-methyl]-4,5-diphenyl-2-oxazole acetate]",0.75 µg/mL
8,O=C(O)COc1cccc(C=C(C(=O)O)c2nc(-c3ccccc3)c(-c3ccccc3)o2)c1 [Compound 8b],9 µg/mL
9,"COC(=O)COc1cccc(/C=C(\C#N)c2nc(-c3ccccc3)c(-c3ccccc3)o2)c1 [Compound 16, (E)-Methyl[3-[2-cyano-2-(4,5-diphenyl-2-oxazolyl)ethenyl]phenoxy]acetate]",8 µg/mL
10,"COC(=O)COc1cccc(CC(C(N)=O)c2nc(-c3ccccc3)c(-c3ccccc3)o2)c1 (stereo not drawn) [Compound 9h, Methyl[3-[α-Amino-2-(4,5-diphenyl-2-oxazolyl)-3-oxopropyl]phenoxy]acetic acid]",> 32 µg/mL
11,"COC(=O)C(Cc1cccc(OCC(=O)OC(C)(C)C)c1)c1nc(-c2ccccc2)c(-c2ccccc2)o1 (stereo not drawn) [Compound 9c, Methyl α-[[3-(2-(1,1-dimethylethoxy-2-oxoethoxy)phenyl]methyl]-4,5-diphenyl-2-oxazole acetate]",> 32 µg/mL
12,"CC(C)OC(=O)C(Cc1cccc(OCC(=O)OC(C)(C)C)c1)c1nc(-c2ccccc2)c(-c2ccccc2)o1 (stereo not drawn) [Compound 9e, 1-Methylethyl α-[[3-[2-(1,1-dimethylethoxy)-2-oxoethoxy)phenyl]methyl]-4,5-diphenyl-2-oxazoleacetate]",> 32 µg/mL
13,"CC(C)(C)OC(=O)COc1cccc(CC(C(N)=O)c2nc(-c3ccccc3)c(-c3ccccc3)o2)c1 (stereo not shown) [Compound 9g, (t-Butyl [3-3-amino-2-(4,5-diphenyl-2-oxazolyl)-3-oxopropyl]phenoxy acetate]",> 32 µg/mL
14,COC(=O)COc1cccc(CC(C(=O)OC(C)C)c2nc(-c3ccccc3)c(-c3ccccc3)o2)c1 (stereo not shown) [Compound 9f],3.5 µg/mL
15,"CNC(=O)C(=Cc1cccc(OCC(=O)OC)c1)c1nc(-c2ccccc2)c(-c2ccccc2)o1 [Compound 7h, (E) and (Z) Methyl [3-[2-(4,5-diphenyl-2-oxazolyl)-3-methylamino-3-oxo-propenyl]phenoxy]acetate]",1.3 µg/mL
16,"CCOC(=O)/C(=C/c1cccc(OCC(=O)OC)c1)c1nc(-c2ccccc2)c(-c2ccccc2)o1 [Compound 7c, (E)-Ethyl α-[[3-(2-methoxy-2-oxoethoxy)phenyl]methylene]-4,5-diphenyl-2-oxazole acetate]",1 µg/mL
17,"CCOC(=O)C(=Cc1cccc(OCC(=O)O)c1)c1nc(-c2ccccc2)c(-c2ccccc2)o1 [Compound 8a, (E) and (Z) Ethyl α-[[3-carboxymethoxy)phenyl]methylene]-4,5-diphenyl-2-oxazole acetate]",0.17 µg/mL

row,Structure (SMILES),IC50
1,"COC(=O)COc1cccc(/C=C(\C(=O)N(C)C)c2nc(-c3ccccc3)c(-c3ccccc3)o2)c1 [Compound 7i, (Z)-Methyl [3-[3-(dimethylamino)-2-(4,5-diphenyl-2-oxazolyl)-3-oxo-1-propenyl]phenoxy]acetate]",> 32 µg/mL
2,"CNC(=O)C(Cc1cccc(OCC(=O)OC)c1)c1nc(-c2ccccc2)c(-c2ccccc2)o1 (stereo not shown) [Compound 9i, Methyl[3-[2-(4,5-diphenyl-2-oxazolyl)-3-(methylamino)-3-oxo-propyl]phenoxy]acetate]",3.5 µg/mL
3,"CN(C)C(=O)/C(=C\c1cccc(OCC(=O)O)c1)c1nc(-c2ccccc2)c(-c2ccccc2)o1 [Compound 8e, (Z)-[3-[3-(Dimethylamino)-2-(4,5-diphenyl-2-oxazolyl)-3-oxo-1-propenyl]phenoxy]acetic acid]",5.8 µg/mL
4,"COC(=O)C(Cc1cccc(OCC(=O)O)c1)c1nc(-c2ccccc2)c(-c2ccccc2)o1 (stereo not drawn) [Compound 10c, Methyl α-[[3-(2-hydroxy-2-oxoethoxy)phenyl]methyl]-4,5-diphenyl-2-oxazole acetate]",0.037 µg/mL
5,"COC(=O)COc1cccc(C=C(C(=O)OC(C)C)c2nc(-c3ccccc3)c(-c3ccccc3)o2)c1 [Compound 7f, (E) and (Z) 1-Methylethyl α-[[3-[2-(methoxy-2-oxoethoxy)phenyl]methylene]-4,5-diphenyl-2-oxazoleacetate]",5 µg/mL
6,"CC(C)OC(=O)C(=Cc1cccc(OCC(=O)OC(C)(C)C)c1)c1nc(-c2ccccc2)c(-c2ccccc2)o1 [Compound 7e, (E) and (Z)-1-methylethyl α-[[3-[2-(1,1,-dimethylethoxy)-2-oxoethoxy]phenyl]-methylene]-4,5-diphenyl-2-oxazoleacetate]",> 32 µg/mL
7,COC(=O)COc1cccc(CC(C#N)c2nc(-c3ccccc3)c(-c3ccccc3)o2)c1 (stereo not shown) [Compound 18],0.36 µg/mL
8,"COC(=O)COc1cccc(C=C(C(=O)OC)c2nc(-c3ccccc3)c(-c3ccccc3)o2)c1 [Compound 7d, Methyl (E) and (Z) α-[[3-(2-methoxy-2-oxoethoxy)phenyl]methylene]-4,5-diphenyl-2-oxazoleacetate]",0.5 µg/mL
9,"CCOC(=O)/C(=C\c1cccc(OCC(=O)OC)c1)c1nc(-c2ccccc2)c(-c2ccccc2)o1 [Compound 7b, (Z)-Ethyl-α-[[3-(2-methoxy-2-oxoethoxy)phenyl]methylene]-4,5-diphenyl-2-oxazole acetate]",10 µg/mL
10,"CCOC(=O)C(Cc1cccc(OCC(=O)O)c1)c1nc(-c2ccccc2)c(-c2ccccc2)o1 (stereo not drawn) [Compound 10a, Ethyl α-[[3-hydroxy-2-oxoethoxyl]phenyl]methyl]-4,5-diphenyl-2-oxazole ace tate]",0.06 µg/mL
11,"N#CC(Cc1cccc(OCC(=O)O)c1)c1nc(-c2ccccc2)c(-c2ccccc2)o1 (stereo not shown) [Compound 19, [3-[2-Cyano-2-(4,5-diphenyl-2-oxazolyl)ethyl]phenoxy]acetic acid]",0.2 µg/mL
12,"CNC(=O)C(=Cc1cccc(OCC(=O)O)c1)c1nc(-c2ccccc2)c(-c2ccccc2)o1 [Compound 8d, (E) and (Z) [3-[2-(4,5-Diphenyl-2-oxazolyl)-3-(methylamino)-3-oxo-propenyl]phenoxy]acetic acid]",7 µg/mL
13,"CCOC(=O)C(=Cc1cccc(OCC(=O)OC(C)(C)C)c1)c1nc(-c2ccccc2)c(-c2ccccc2)o1 [Compound 7a, (E) and (Z)-Ethyl α-[[3-[[(1,1-dimethylethoxy)carbonyl]methoxyl]phenyl]methylene]-4,5-diphenyl-2-oxazoleacetate]",> 32 µg/mL
14,"CN(C)C(=O)C(Cc1cccc(OCC(=O)O)c1)c1nc(-c2ccccc2)c(-c2ccccc2)o1 (stereo not shown) [Compound 10g, [3-[3-(Dimethylamino)-2-(4,5-diphenyl-2-oxazolyl)-3-oxopropyl]phenoxy]acetic acid]",1.7 µg/mL
15,"COC(=O)COc1cccc(CC(C(=O)OC)c2nc(-c3ccccc3)c(-c3ccccc3)o2)c1 (stereo not drawn) [Compound 9d, Methyl α-[[3-(2-methoxy-2-oxoethoxy)phenyl]methyl]-4,5-diphenyl-2-oxazole acetate]",0.6 µg/mL
16,"NC(=O)C(Cc1cccc(OCC(=O)O)c1)c1nc(-c2ccccc2)c(-c2ccccc2)o1 (stereo not shown) [Compound 10e, [3-[3-Amino-2-(4,5-diphenyl-2-oxazolyl)-3-oxopropyl]phenoxy]acetic acid]",1.7 µg/mL
17,CCOC(=O)C(Cc1cccc(OCC(=O)OC(C)(C)C)c1)c1nc(-c2ccccc2)c(-c2ccccc2)o1 (stereo not shown) [Compound 9a],> 32 µg/mL
